Common to all, as to assay: relative viability (nuclei count vs DMSO), 5 days (fraction); higher = more cells survive
Compound in assay [1]: COc1cc2nc(N3CCCN(C)CC3)nc(NC3CCN(Cc4ccccc4)CC3)c2cc1OC + COc1cc2c(Oc3ccc(NC(=O)C4(C(=O)Nc5ccc(F)cc5)CC4)cc3F)ccnc2cc1OCCCN1CCOCC1 [Foretinib] (partner 0.25 µM)
In short, it runs like this:
(§1)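 One day after seeding in 1536-well plates, lung cancer cell lines were dosed by pin tool. Dosing was either single-drug or a fixed anchor-drug dose plus five library-drug doses (not always all listed) in √10 steps. After 5 days, nuclei were stained in one fix-and-stain step and counted on 4× images, and relative viability is the nuclei count of treated wells over that of vehicle wells, given as the median of duplicate plates.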

Compound in assay [2]: COc1cc2nc(N3CCCN(C)CC3)nc(NC3CCN(Cc4ccccc4)CC3)c2cc1OC + CS(=O)(=O)N1CCN(Cc2cc3nc(-c4cccc5[nH]ncc45)nc(N4CCOCC4)c3s2)CC1 [Pictilisib] (partner 1 µM)
In short, it runs like this:
as §1

Compound in the assay “AZD6482 + Tozasertib”: Cc1cc([C@@H](C)Nc2ccccc2C(=O)O)c2nc(N3CCOCC3)cc(=O)n2c1 [AZD6482] + Cc1cc(Nc2cc(N3CCN(C)CC3)nc(Sc3ccc(NC(=O)C4CC4)cc3)n2)n[nH]1 [Tozasertib] (partner 0.1 µM)
In short, it runs like this: as §1

Compound in the assay “AZD6482 + Olaparib”: Cc1cc([C@@H](C)Nc2ccccc2C(=O)O)c2nc(N3CCOCC3)cc(=O)n2c1 [AZD6482] + O=C(c1cc(Cc2n[nH]c(=O)c3ccccc23)ccc1F)N1CCN(C(=O)C2CC2)CC1 [Olaparib] (partner 8 µM)
A digest of the protocol: as §1

Regarding NCI-H1395, the relative viability in assay [1] (first compound 0.2 µM) is 0.895; in assay [1] (first compound 0.6325 µM), 1; in assay [1] (first compound 2 µM), 0.93; in assay [1] (first compound 6.325 µM), 0.858; in assay [2] (first compound 0.2 µM), 0.596; in assay [2] (first compound 0.6325 µM) it was 0.589. Besides, the relative viability in assay [2] (first compound 2 µM) was 0.647; in assay [2] (first compound 6.325 µM), 0.486; with AZD6482 + Tozasertib (first compound 0.08 µM), 0.625; in the assay with AZD6482 + Tozasertib (first compound 0.253 µM), 0.646; with AZD6482 + Tozasertib (first compound 0.8 µM), 0.584; with AZD6482 + Tozasertib (first compound 2.53 µM) it was 0.54. In addition, the relative viability with AZD6482 + Tozasertib (first compound 8 µM) amounted to 0.44; with AZD6482 + Olaparib (first compound 0.08 µM), 0.406; with AZD6482 + Olaparib (first compound 0.253 µM), 0.429; with AZD6482 + Olaparib (first compound 0.8 µM) it was 0.501; with AZD6482 + Olaparib (first compound 2.53 µM), 0.388; with AZD6482 + Olaparib (first compound 8 µM) it was 0.32.

For the cell line NCI-H358, the relative viability in assay [1] (first compound 0.2 µM) came to 0.701; in assay [1] (first compound 0.6325 µM) it was 0.824; in assay [1] (first compound 2 µM) it was 0.81; in assay [1] (first compound 6.325 µM), 0.566; in assay [2] (first compound 0.2 µM), 0.368; in assay [2] (first compound 0.6325 µM), 0.422. Also, the relative viability in assay [2] (first compound 2 µM) came out at 0.348; in assay [2] (first compound 6.325 µM) it was 0.269; with AZD6482 + Tozasertib (first compound 0.08 µM), 0.0814; with AZD6482 + Tozasertib (first compound 0.253 µM), 0.107; with AZD6482 + Tozasertib (first compound 0.8 µM), 0.104; with AZD6482 + Tozasertib (first compound 2.53 µM) it was 0.0733. Moreover, the relative viability is 0.0946 in the assay with AZD6482 + Tozasertib (first compound 8 µM); 0.535 with AZD6482 + Olaparib (first compound 0.08 µM); 0.554 in the assay with AZD6482 + Olaparib (first compound 0.253 µM); 0.624 with AZD6482 + Olaparib (first compound 0.8 µM); 0.282 with AZD6482 + Olaparib (first compound 2.53 µM); 0.52 with AZD6482 + Olaparib (first compound 8 µM).

With NCI-H838, the relative viability in assay [1] (first compound 0.2 µM) turned out to be 1.08; in assay [1] (first compound 0.6325 µM) it was 1.17; in assay [1] (first compound 2 µM), 1.06; in assay [1] (first compound 6.325 µM) it was 1.03; in assay [2] (first compound 0.2 µM) it was 0.477; in assay [2] (first compound 0.6325 µM) it was 0.598. The relative viability came to 0.479 in assay [2] (first compound 2 µM); 0.424 in assay [2] (first compound 6.325 µM); 0.264 with AZD6482 + Tozasertib (first compound 0.08 µM); 0.266 with AZD6482 + Tozasertib (first compound 0.253 µM); 0.243 in the assay with AZD6482 + Tozasertib (first compound 0.8 µM); 0.192 with AZD6482 + Tozasertib (first compound 2.53 µM). Besides, the relative viability with AZD6482 + Tozasertib (first compound 8 µM) was found to be 0.222; with AZD6482 + Olaparib (first compound 0.08 µM), 0.631; with AZD6482 + Olaparib (first compound 0.253 µM), 0.712; with AZD6482 + Olaparib (first compound 0.8 µM), 0.651; with AZD6482 + Olaparib (first compound 2.53 µM), 0.433; with AZD6482 + Olaparib (first compound 8 µM), 0.395.

As to CAL-12T, the relative viability in assay [1] (first compound 0.2 µM) was determined as 1.01; in assay [1] (first compound 0.6325 µM), 1.15; in assay [1] (first compound 2 µM), 1.38; in assay [1] (first compound 6.325 µM), 0.941; in assay [2] (first compound 0.2 µM), 0.402; in assay [2] (first compound 0.6325 µM), 0.53. Further, the relative viability stood at 0.388 in assay [2] (first compound 2 µM); 0.34 in assay [2] (first compound 6.325 µM); 0.303 with AZD6482 + Tozasertib (first compound 0.08 µM); 0.338 with AZD6482 + Tozasertib (first compound 0.253 µM); 0.37 in the assay with AZD6482 + Tozasertib (first compound 0.8 µM); 0.228 with AZD6482 + Tozasertib (first compound 2.53 µM). The relative viability with AZD6482 + Tozasertib (first compound 8 µM) worked out at 0.218; in the assay with AZD6482 + Olaparib (first compound 0.08 µM) it was 0.746; in the assay with AZD6482 + Olaparib (first compound 0.253 µM) it was 0.702; with AZD6482 + Olaparib (first compound 0.8 µM) it was 0.712; with AZD6482 + Olaparib (first compound 2.53 µM), 0.595; in the assay with AZD6482 + Olaparib (first compound 8 µM), 0.543.

The values above are taken from the supplement of paper PMC10307832.
